Test results reported in ChEMBL document CHEMBL1122422, “Resolution of etodolac and antiinflammatory and prostaglandin synthetase inhibiting properties of the enantiomers” (J Med Chem, 1983).

Species on record: Ovis aries
Experiment: Effect of compound (400 uM) on biosynthesis of prostaglandins from tritiated arachidonic acid was evaluated in vitro; NE = No effect at the given concentration
Assay type: functional

CCc1cccc2c3c([nH]c12)C(CC)(CC(=O)O)OCC3 (single isomer, unassigned; (-))
Activity: No effect
